Literature values, collected in patent US9913917B2, “Biocompatible fluorescent metal oxide nanoparticles” (VisEn Medical, Inc., priority 2005, dated 2018).

Details: free fluorochrome

Absorbance max: 675 nm | εmax: 250,000 M^−1cm^−1
Substance: Cy5.5
